Test results as given in patent US20100168228A1, “NOVEL CHEMOTHERAPEUTIC AGENTS AGAINST INFLAMMATION AND CANCER” (RELIANCE LIFE SCIENCES PVT. LTD., priority 2006, published 2010).

Legend:
Type in all cases: cell-based, human
Jurkat cells = test: Measurement of reactive oxygen intermediates (ROI) by flow cytometry; conditions: pretreated 1 h, TNF 1 nM 4 h
Experimental: The production of ROI in cells treated with TNFα or LPS was determined by flow cytometer as described by (Manna, S. K. et. al., J. Immunol. (1999) 162(3):1510-1518). Briefly Jurkat cells (5×10^5 cells in one ml) were incubated either with RPMI 1640 medium supplemented with 10% FBS or with complete media containing different concentrations of CAMVE for 1 h at 37° C. Cells were then stimulated with 1 nM of TNF for 4 h. After incubation, the cells were washed with D-PBS, and resuspended in 1 ml D-PBS. To detect ROI production, cells were exposed to Dihydrorhodamine 123 (5 mM stock) at a final concentration of 1 μM for 1 hr at 37° C. with moderate shaking (100 rpm) and then washed with D-PBS three times and resuspended in 1 ml of D-PBS. Rhodamine 123 fluorescence intensity resulting from Dihydrorhodamine 123 oxidation was measured by FACS Calibur (Becton Dickinson) with excitation at 488 nm and was detected between […]. Data was analyzed using Cell Quest software (Becton Dickinson).

p53 = p53 mRNA, semi-quantitative RT-PCR, Jurkat; conditions: various doses, 12 h
Experimental: RNA extraction: Total RNA was isolated using the standard TRIzol method (Gibco BRL). Briefly, 3×10^6 cells were treated with different concentrations of the compounds as indicated in the legends to Figures and after harvesting the cell pellet was resuspended in 1 ml of TRIzol with repeated pipetting. The homogenized sample was incubated at RT for 5 min to permit complete dissociation of the nucleoprotein complexes. […] of chloroform was added and the tubes were shaken vigorously for 15 sec by hand and then incubated at RT for 3 mins. The samples were then centrifuged at 10,000 RPM for 15 mins at 4° C. The aqueous phase was transferred to a fresh tube and 500 μl of Isopropyl alcohol was added, followed by incubation at RT for 10 mins. The samples were centrifuged at 10,000 RPM for 10 min at 4° C. and the RNA pellet was washed with 1 ml of 75% ethanol followed by centrifugation at maximum speed at 4° C. for 10 mins. Washing was repeated once more and after removing the supernatant, the RNA pellet was dried and dissolved in 20 ul of RNase free water (Promega). […]
Semi-quantitative reverse transcriptase (RT)-PCR: Changes in gene expression were verified by semi-quantitative RT-PCR using GAPDH as an internal normalization standard. 1 μg of total RNA (quantified by spectrophotometer) was used to reverse transcribe into cDNA. […]

caspase 3 = test: Caspase 3 activity assay, Jurkat lysates; conditions: 16 and 24 h exposure
Experimental: FIG. 14: Induction of Caspase 3 by compound 27. Jurkat cells were treated with indicated concentrations of the compound for 16 and 24 h and harvested in lysis buffer. Cellular lysates were incubated with Ac-DEVD-pNA as described in the “Materials and Methods” for 2 h at 37° C. Absorbance was recorded at 405 nm.
Caspase 3 activity assay: To evaluate caspase 3 activity, cell lysates were prepared after their respective treatments with the compounds. 200 μg of the cell lysates were incubated with 50 μM caspase 3 substrate […] in 100 μl reaction buffer (1% NP-40, […] tris-HCl, pH7.5, 137 mM NaCl, and 10% glycerol) and incubated for 2 h at 37° C. The release of chromophore pNA was monitored spectrophotometrically at 405 nm.

U937 cell line = test: Apoptosis by PARP cleavage (FACS), U937; conditions: U937, 100 nM, 24 h
Experimental: (§1) FIG. 19: Effect of compound 27 on the apoptosis in cells with different p53 status. Extent of apoptosis in different cells was measured by staining the cells for PARP cleavage followed by FACS analysis. Cells were treated with 100 nM of the compound for 24 h and the level of apoptosis was seen. Percentage apoptotic populations are represented as the M2 gated population.
(§2) PARP Cleavage Assay using Flow Cytometry: Extent of PARP cleavage is determined using polyclonal antibody specifically recognizing the 85 kDa fragment of cleaved PARP (NSB 699 Novus Biologicals) and can be used as a marker for detecting apoptotic cells. Treated cells were fixed with 70% chilled ethanol and permeabilized for 30 min at RT (PBS+0.5% BSA+0.02% NaN3+0.5% saponin) and stained with anti PARP-FITC (10 μl/10^6 cells) for one hour at RT. Cells were washed twice with wash buffer (PBS+1% heat inactivated FBS) and analysed using FACS.

MCF-7 = test: Apoptosis by PARP cleavage (FACS), MCF-7; conditions: MCF-7, 100 nM, 24 h
Experimental: as §1, §2

Row | SMILES | TNF induced ROI generation (Jurkat cells) | p53 mRNA level (p53) | caspase 3 activity (DVED-pNA cleavage) (caspase 3) | level of apoptosis (PARP cleavage) (U937 cell line) | level of apoptosis (PARP cleavage) (MCF-7)
1 | COC(=O)c1ccc(OC(=O)/C=C/c2ccc(O)c(O)c2)c(OC)c1 [compound 1, Methyl 4-{[(2E)-3-(3,4-dihydroxyphenyl)prop-2-enoyl]oxy}-3-methoxybenzoate] | suppressed on pretreatment of cells with CAMVE in a dose dependent fashion |  |  |  | 
2 | COc1cc([C@@H]2Oc3c(OC)cc(/C=C/C(=O)O)cc3[C@H]2C(=O)O)ccc1O [compound 27, 5-[(E)-2-carboxyvinyl]-2β-(4-hydroxy-3-methoxyphenyl)-7-methoxy-2,3-dihydro-1-benzofuran-3α-carboxylic acid] |  | only slight increase in p53 mRNA level | dose dependent increase in DVED-pNA cleavage | does not show induction of apoptosis | comparable to that of Jurkat cell line
